Experiments:
green foxtail [1] = experiment: Test Example 4: herbicidal effect by soil treatment (Table 19, symbol G); assay type: in vivo, green foxtail (Setaria viridis); conditions: amount of applied herbicide 320 g/ha
Procedure, shortened: (§1)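 Scoring uses the grading scale of an earlier test, three weeks post-application. Treatment consists of spraying a diluted emulsion formulation across the surface of sterilized diluvial soil in which seeds are buried near 1.5 cm deep; boxes are kept in a greenhouse between 25° C. and 30° C.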

southern crabgrass [2] = experiment: Test Example 4: herbicidal effect by soil treatment (Table 19, symbol F); assay type: in vivo, southern crabgrass (Digitaria ciliaris); conditions: amount of applied herbicide 320 g/ha
Procedure, shortened: as §1

wild oat [3] = experiment: Test Example 5: herbicidal effect by foliage application, plastic box (Table 20, symbol I); assay type: in vivo, wild oat (Avena fatua); conditions: foliage application, 320 g/ha, three weeks after application
Procedure, shortened: (§2)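 Post-emergence foliar test in sterilized diluvial soil. Compound applied as water-diluted emulsion at a predetermined rate to 14-day-old plants; evaluation at three weeks.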

Italian ryegrass [4] = experiment: Test Example 4: herbicidal effect by soil treatment (Table 19, symbol K); assay type: in vivo, Italian ryegrass (Lolium multiflorum); conditions: amount of applied herbicide 320 g/ha
Procedure, shortened: as §1

persian speedwell [5] = experiment: Test Example 4: herbicidal effect by soil treatment (Table 19, symbol R); assay type: in vivo, Persian speedwell (Veronica persica); conditions: amount of applied herbicide 320 g/ha
Procedure, shortened: as §1

Chinese sprangletop = experiment: Test Example 3: herbicidal effect by foliage application, Wagner pot (Table 18, symbol D); assay type: in vivo, chinese sprangletop (Leptochloa chinensis); conditions: 320 g/ha
Procedure, shortened: (§3)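 Plants were sown in alluvial soil held under 0.1–0.5 cm standing water and grown 14 days in a greenhouse at 25–30 °C. An emulsifiable formulation, water-diluted to the set dose, was then sprayed onto the foliage, and effects were scored three weeks later using previously defined criteria.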

barnyard grass [6] = experiment: Test Example 4: herbicidal effect by soil treatment (Table 19, symbol H); assay type: in vivo, barnyard grass (Echinochloa crus-galli); conditions: amount of applied herbicide 320 g/ha
Procedure, shortened: as §1

Japanese bulrush = experiment: Test Example 1: herbicidal activity, application before weed generation under submerged conditions (Table 16, symbol B); assay type: in vivo, Japanese bulrush (Schoenoplectus juncoides); conditions: amount of applied herbicide 320 g/ha
Procedure, shortened: (§4)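 Alluvial soil was flooded to 4 cm depth, weed seeds were sown mixed and 2.5-leaf rice seedlings were transplanted. On sowing day, the compound's emulsion, diluted in water to a set dose, was applied to the water surface. Plants grew at 25–30 °C and were scored 0–5 after three weeks.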

velvetleaf [7] = experiment: Test Example 4: herbicidal effect by soil treatment (Table 19, symbol M); assay type: in vivo, velvetleaf (Abutilon theophrasti); conditions: amount of applied herbicide 320 g/ha
Procedure, shortened: as §1

windgrass [8] = experiment: Test Example 4: herbicidal effect by soil treatment (Table 19, symbol L); assay type: in vivo, windgrass (Apera spica-venti); conditions: amount of applied herbicide 320 g/ha
Procedure, shortened: as §1

Italian ryegrass [9] = experiment: Test Example 5: herbicidal effect by foliage application, plastic box (Table 20, symbol K); assay type: in vivo, Italian ryegrass (Lolium multiflorum); conditions: foliage application, 320 g/ha, three weeks after application
Procedure, shortened: as §2

southern crabgrass [10] = experiment: Test Example 5: herbicidal effect by foliage application, plastic box (Table 20, symbol F); assay type: in vivo, southern crabgrass (Digitaria ciliaris); conditions: foliage application, 320 g/ha, three weeks after application
Procedure, shortened: as §2

green foxtail [11] = experiment: Test Example 5: herbicidal effect by foliage application, plastic box (Table 20, symbol G); assay type: in vivo, green foxtail (Setaria viridis); conditions: foliage application, 320 g/ha, three weeks after application
Procedure, shortened: as §2

barnyard grass [12] = experiment: Test Example 5: herbicidal effect by foliage application, plastic box (Table 20, symbol H); assay type: in vivo, barnyard grass (Echinochloa crus-galli); conditions: foliage application, 320 g/ha, three weeks after application
Procedure, shortened: as §2

lambsquarters [13] = experiment: Test Example 4: herbicidal effect by soil treatment (Table 19, symbol O); assay type: in vivo, lambsquarters (Chenopodium album); conditions: amount of applied herbicide 320 g/ha
Procedure, shortened: as §1

velvetleaf [14] = experiment: Test Example 5: herbicidal effect by foliage application, plastic box (Table 20, symbol M); assay type: in vivo, velvetleaf (Abutilon theophrasti); conditions: foliage application, 320 g/ha, three weeks after application
Procedure, shortened: as §2

barnyard grass [15] = experiment: Test Example 3: herbicidal effect by foliage application, Wagner pot (Table 18, symbol H); assay type: in vivo, barnyard grass (Echinochloa crus-galli); conditions: 320 g/ha
Procedure, shortened: as §3

chickweed = experiment: Test Example 4: herbicidal effect by soil treatment (Table 19, symbol P); assay type: in vivo, common chickweed (Stellaria media); conditions: amount of applied herbicide 320 g/ha
Procedure, shortened: as §1

redroot pigweed = experiment: Test Example 4: herbicidal effect by soil treatment (Table 19, symbol N); assay type: in vivo, redroot pigweed (Amaranthus retroflexus); conditions: amount of applied herbicide 320 g/ha
Procedure, shortened: as §1

late watergrass = experiment: Test Example 1: herbicidal activity, application before weed generation under submerged conditions (Table 16, symbol A); assay type: in vivo, late watergrass (Echinochloa oryzicola); conditions: amount of applied herbicide 320 g/ha
Procedure, shortened: as §4

wild oat [16] = experiment: Test Example 4: herbicidal effect by soil treatment (Table 19, symbol I); assay type: in vivo, wild oat (Avena fatua); conditions: amount of applied herbicide 320 g/ha
Procedure, shortened: as §1

lambsquarters [17] = experiment: Test Example 5: herbicidal effect by foliage application, plastic box (Table 20, symbol O); assay type: in vivo, lambsquarters (Chenopodium album); conditions: foliage application, 320 g/ha, three weeks after application
Procedure, shortened: as §2

windgrass [18] = experiment: Test Example 5: herbicidal effect by foliage application, plastic box (Table 20, symbol L); assay type: in vivo, windgrass (Apera spica-venti); conditions: foliage application, 320 g/ha, three weeks after application
Procedure, shortened: as §2

blackgrass [19] = experiment: Test Example 5: herbicidal effect by foliage application, plastic box (Table 20, symbol J); assay type: in vivo, blackgrass (Alopecurus myosuroides); conditions: foliage application, 320 g/ha, three weeks after application
Procedure, shortened: as §2

rice flat sedge = experiment: Test Example 3: herbicidal effect by foliage application, Wagner pot (Table 18, symbol E); assay type: in vivo, rice flat sedge (Cyperus iria); conditions: 320 g/ha
Procedure, shortened: as §3

persian speedwell [20] = experiment: Test Example 5: herbicidal effect by foliage application, plastic box (Table 20, symbol R); assay type: in vivo, Persian speedwell (Veronica persica); conditions: foliage application, 320 g/ha, three weeks after application
Procedure, shortened: as §2

oval-leafed pondweed = experiment: Test Example 1: herbicidal activity, application before weed generation under submerged conditions (Table 16, symbol C); assay type: in vivo, oval-leafed pondweed (Monochoria vaginalis); conditions: amount of applied herbicide 320 g/ha
Procedure, shortened: as §4

blackgrass [21] = experiment: Test Example 4: herbicidal effect by soil treatment (Table 19, symbol J); assay type: in vivo, blackgrass (Alopecurus myosuroides); conditions: amount of applied herbicide 320 g/ha
Procedure, shortened: as §1

Structure (SMILES)	G: green foxtail, herbicidal effect grade (green foxtail [1])	F: southern crabgrass, herbicidal effect grade (southern crabgrass [2])	herbicidal effect on wild oat (I) (wild oat [3])	K: Italian ryegrass, herbicidal effect grade (Italian ryegrass [4])	R: persian speedwell, herbicidal effect grade (persian speedwell [5])	herbicidal effect on Chinese sprangletop (D) (Chinese sprangletop)	H: barnyard grass, herbicidal effect grade (barnyard grass [6])	Herbicidal effect, B: Japanese bulrush (Japanese bulrush)	M: velvetleaf, herbicidal effect grade (velvetleaf [7])	L: windgrass, herbicidal effect grade (windgrass [8])	herbicidal effect on Italian ryegrass (K) (Italian ryegrass [9])	herbicidal effect on southern crabgrass (F) (southern crabgrass [10])	herbicidal effect on green foxtail (G) (green foxtail [11])	herbicidal effect on barnyard grass (H) (barnyard grass [12])	O: lambsquarters, herbicidal effect grade (lambsquarters [13])	herbicidal effect on velvetleaf (M) (velvetleaf [14])	herbicidal effect on barnyard grass (H) (barnyard grass [15])	P: chickweed, herbicidal effect grade (chickweed)	N: redroot pigweed, herbicidal effect grade (redroot pigweed)	Herbicidal effect, A: late watergrass (late watergrass)	further results
COc1ccc(-c2sc3cc(OC)c(Cl)cc3c2-c2c(O)c(C)nn(C)c2=O)cc1 [5-070]	0 (Herbicidal rate of 5% or less (almost no effect))	0 (Herbicidal rate of 5% or less (almost no effect))	0 (Herbicidal rate of 5% or less (almost no effect))	0 (Herbicidal rate of 5% or less (almost no effect))	3 (Herbicidal rate of 40% or more and less than 70%)	0 (Herbicidal rate of 5% or less (almost no effect))	0 (Herbicidal rate of 5% or less (almost no effect))	2 (Herbicidal rate of 20% or more and less than 40%)	0 (Herbicidal rate of 5% or less (almost no effect))	0 (Herbicidal rate of 5% or less (almost no effect))	0 (Herbicidal rate of 5% or less (almost no effect))	0 (Herbicidal rate of 5% or less (almost no effect))	0 (Herbicidal rate of 5% or less (almost no effect))	0 (Herbicidal rate of 5% or less (almost no effect))	0 (Herbicidal rate of 5% or less (almost no effect))	0 (Herbicidal rate of 5% or less (almost no effect))	3 (Herbicidal rate of 40% or more and less than 70%)	1 (Herbicidal rate of 5% or more and less than 20%)	0 (Herbicidal rate of 5% or less (almost no effect))	0 (Herbicidal rate of 5% or less (almost no effect))	I: wild oat, herbicidal effect grade (wild oat [16]): 0 (Herbicidal rate of 5% or less (almost no effect)); herbicidal effect on lambsquarters (O) (lambsquarters [17]): 0 (Herbicidal rate of 5% or less (almost no effect)); herbicidal effect on windgrass (L) (windgrass [18]): 0 (Herbicidal rate of 5% or less (almost no effect)); herbicidal effect on blackgrass (J) (blackgrass [19]): 0 (Herbicidal rate of 5% or less (almost no effect)); herbicidal effect on rice flat sedge (E) (rice flat sedge): 0 (Herbicidal rate of 5% or less (almost no effect)); herbicidal effect on persian speedwell (R) (persian speedwell [20]): 4 (Herbicidal rate of 70% or more and less than 90%); Herbicidal effect, C: oval-leafed pondweed (oval-leafed pondweed): 0 (Herbicidal rate of 5% or less (almost no effect)); J: blackgrass, herbicidal effect grade (blackgrass [21]): 0 (Herbicidal rate of 5% or less (almost no effect))
CCCC(=O)Oc1c(C)nn(C)c(=O)c1-c1c(-c2ccccc2OCC)sc2cc(OC)c(Cl)cc12 [5-073]	2 (Herbicidal rate of 20% or more and less than 40%)	0 (Herbicidal rate of 5% or less (almost no effect))	0 (Herbicidal rate of 5% or less (almost no effect))	0 (Herbicidal rate of 5% or less (almost no effect))	0 (Herbicidal rate of 5% or less (almost no effect))	0 (Herbicidal rate of 5% or less (almost no effect))	0 (Herbicidal rate of 5% or less (almost no effect))	4 (Herbicidal rate of 70% or more and less than 90%)	0 (Herbicidal rate of 5% or less (almost no effect))	0 (Herbicidal rate of 5% or less (almost no effect))	0 (Herbicidal rate of 5% or less (almost no effect))	5 (Herbicidal rate of 90% or more (almost completely withered))	5 (Herbicidal rate of 90% or more (almost completely withered))	5 (Herbicidal rate of 90% or more (almost completely withered))	0 (Herbicidal rate of 5% or less (almost no effect))	4 (Herbicidal rate of 70% or more and less than 90%)	5 (Herbicidal rate of 90% or more (almost completely withered))	0 (Herbicidal rate of 5% or less (almost no effect))	1 (Herbicidal rate of 5% or more and less than 20%)	5 (Herbicidal rate of 90% or more (almost completely withered))	I: wild oat, herbicidal effect grade (wild oat [16]): 0 (Herbicidal rate of 5% or less (almost no effect)); herbicidal effect on lambsquarters (O) (lambsquarters [17]): 4 (Herbicidal rate of 70% or more and less than 90%); herbicidal effect on windgrass (L) (windgrass [18]): 3 (Herbicidal rate of 40% or more and less than 70%); herbicidal effect on blackgrass (J) (blackgrass [19]): 0 (Herbicidal rate of 5% or less (almost no effect)); herbicidal effect on rice flat sedge (E) (rice flat sedge): 0 (Herbicidal rate of 5% or less (almost no effect)); herbicidal effect on persian speedwell (R) (persian speedwell [20]): 0 (Herbicidal rate of 5% or less (almost no effect)); Herbicidal effect, C: oval-leafed pondweed (oval-leafed pondweed): 4 (Herbicidal rate of 70% or more and less than 90%); J: blackgrass, herbicidal effect grade (blackgrass [21]): 0 (Herbicidal rate of 5% or less (almost no effect))

Reference: patent US20230085307A1, “PYRIDAZINONE COMPOUND AND HERBICIDE” (NISSAN CHEMICAL CORPORATION, priority 2019, published 2023)
